Results reported in PubChem BioAssay (NCI).
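In this assay, cells in 96-well plates receive the compound at five concentrations for 48 hours. Endpoints are linearly interpolated between the surrounding concentrations. GI50 is the concentration that inhibits growth by half. The concentration for full growth arrest is given as TGI.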

Tested on: HOP-62 NSCLC
Assay: NCI tumour cell line growth inhibition, 48 h

SMILES	TGI [µM]	GI50 [µM]
O=C(Nc1ccccc1)OCCN=C1c2ccccc2C(Br)C(Br)c2ccccc21 (stereo not drawn)	19.9	–
COc1cc(/C=C/c2cc(/C=C/c3ccc(O)c(OC)c3)n(C(=O)Nc3ccc(F)cc3)n2)ccc1O	9.36	1.07
CCc1ccc2c(c1)C(=O)c1c-2n(CCCBr)c(=O)c2cc([N+](=O)[O-])ccc12	> 50	21.3

Tested on: HOP-92 NSCLC
Assay: NCI tumour cell line growth inhibition, 48 h

SMILES	TGI [µM]	GI50 [µM]
O=C(Nc1ccccc1)OCCN=C1c2ccccc2C(Br)C(Br)c2ccccc21 (stereo not drawn)	16.1	–
COc1cc2c(cc1OC)[C@@H]1[C@H](C#N)C(=O)C(C)(C)N1CC2	> 100	–
COc1cc(/C=C/c2cc(/C=C/c3ccc(O)c(OC)c3)n(C(=O)Nc3ccc(F)cc3)n2)ccc1O	8.07	2.12
CCc1ccc2c(c1)C(=O)c1c-2n(CCCBr)c(=O)c2cc([N+](=O)[O-])ccc12	> 50	16
Nn1c(CCCCCCCCc2nnc(COc3ccc(Cl)cc3Cl)n2N)nnc1COc1ccc(Cl)cc1Cl	> 100	–

Tested on: HS 578T breast
Assay: NCI tumour cell line growth inhibition, 48 h

SMILES	TGI [µM]	GI50 [µM]
O=C(Nc1ccccc1)OCCN=C1c2ccccc2C(Br)C(Br)c2ccccc21 (stereo not drawn)	22	–
COc1cc2c(cc1OC)[C@@H]1[C@H](C#N)C(=O)C(C)(C)N1CC2	> 100	–
COc1cc(/C=C/c2cc(/C=C/c3ccc(O)c(OC)c3)n(C(=O)Nc3ccc(F)cc3)n2)ccc1O	6.11	0.689
CCc1ccc2c(c1)C(=O)c1c-2n(CCCBr)c(=O)c2cc([N+](=O)[O-])ccc12	> 50	18.2

Tested on: HT29 colon
Assay: NCI tumour cell line growth inhibition, 48 h

SMILES	TGI [µM]	GI50 [µM]
O=C(Nc1ccccc1)OCCN=C1c2ccccc2C(Br)C(Br)c2ccccc21 (stereo not drawn)	14.6	–
COc1cc2c(cc1OC)[C@@H]1[C@H](C#N)C(=O)C(C)(C)N1CC2	> 100	–
COc1cc(/C=C/c2cc(/C=C/c3ccc(O)c(OC)c3)n(C(=O)Nc3ccc(F)cc3)n2)ccc1O	4.69	2.03
CCc1ccc2c(c1)C(=O)c1c-2n(CCCBr)c(=O)c2cc([N+](=O)[O-])ccc12	> 50	> 50
Nn1c(CCCCCCCCc2nnc(COc3ccc(Cl)cc3Cl)n2N)nnc1COc1ccc(Cl)cc1Cl	> 100	–

Tested on: IGROV1 ovarian
Assay: NCI tumour cell line growth inhibition, 48 h

SMILES	TGI [µM]	GI50 [µM]
O=C(Nc1ccccc1)OCCN=C1c2ccccc2C(Br)C(Br)c2ccccc21 (stereo not drawn)	10.6	–
COc1cc2c(cc1OC)[C@@H]1[C@H](C#N)C(=O)C(C)(C)N1CC2	> 100	–
COc1cc(/C=C/c2cc(/C=C/c3ccc(O)c(OC)c3)n(C(=O)Nc3ccc(F)cc3)n2)ccc1O	34.3	2.38
CCc1ccc2c(c1)C(=O)c1c-2n(CCCBr)c(=O)c2cc([N+](=O)[O-])ccc12	> 50	27.9
Nn1c(CCCCCCCCc2nnc(COc3ccc(Cl)cc3Cl)n2N)nnc1COc1ccc(Cl)cc1Cl	66	–

Tested on: K-562 leukemia
Assay: NCI tumour cell line growth inhibition, 48 h

SMILES	TGI [µM]	GI50 [µM]
O=C(Nc1ccccc1)OCCN=C1c2ccccc2C(Br)C(Br)c2ccccc21 (stereo not drawn)	7.03	–
COc1cc2c(cc1OC)[C@@H]1[C@H](C#N)C(=O)C(C)(C)N1CC2	> 100	–
COc1cc(/C=C/c2cc(/C=C/c3ccc(O)c(OC)c3)n(C(=O)Nc3ccc(F)cc3)n2)ccc1O	2.91	0.371
CCc1ccc2c(c1)C(=O)c1c-2n(CCCBr)c(=O)c2cc([N+](=O)[O-])ccc12	> 50	> 50
Nn1c(CCCCCCCCc2nnc(COc3ccc(Cl)cc3Cl)n2N)nnc1COc1ccc(Cl)cc1Cl	> 100	–

Tested on: KM12 colon
Assay: NCI tumour cell line growth inhibition, 48 h

SMILES	TGI [µM]	GI50 [µM]
O=C(Nc1ccccc1)OCCN=C1c2ccccc2C(Br)C(Br)c2ccccc21 (stereo not drawn)	18.7	–
COc1cc2c(cc1OC)[C@@H]1[C@H](C#N)C(=O)C(C)(C)N1CC2	> 100	–
COc1cc(/C=C/c2cc(/C=C/c3ccc(O)c(OC)c3)n(C(=O)Nc3ccc(F)cc3)n2)ccc1O	9.12	0.46
CCc1ccc2c(c1)C(=O)c1c-2n(CCCBr)c(=O)c2cc([N+](=O)[O-])ccc12	> 50	> 50
Nn1c(CCCCCCCCc2nnc(COc3ccc(Cl)cc3Cl)n2N)nnc1COc1ccc(Cl)cc1Cl	> 100	–

Tested on: LOX IMVI melanoma
Assay: NCI tumour cell line growth inhibition, 48 h

SMILES	TGI [µM]
O=C(Nc1ccccc1)OCCN=C1c2ccccc2C(Br)C(Br)c2ccccc21 (stereo not drawn)	13.4
COc1cc2c(cc1OC)[C@@H]1[C@H](C#N)C(=O)C(C)(C)N1CC2	> 100
